Where two headings read alike, the source gives them in different places.
Key:
[1] = system: cholesterol-fed female New Zealand White rabbits (aortic lesions); experiment: Antiatherosclerotic effect: aorta staining (Sudan IV) and lesion quantitation in cholesterol-fed female New Zealand White rabbits; type: in vivo, rabbit (New Zealand White; conditions: for Aortic Lesion % of Area, Abdom. (abdominal), as a percent of control: abdominal aorta; for Aortic Lesion % of Area, Abdom. (abdominal), as a percent of control / Aortic Lesion % of Area, Arch, as a percent of control / Aortic Lesion % of Area, Thor. (thoracic), as a percent of control / Aortic Lesion % of Area, Total, as a percent of control: 70 days, diet I 0.15%*, II and III 0.40%; for reduction of total aortic lesions: average, vs control rabbits, 0.15% for Compound I compared to 0.4% for Compound III; for Aortic Lesion % of Area, Thor. (thoracic), as a percent of control: thoracic aorta; for Aortic Lesion % of Area, Total, as a percent of control: total surface area of aorta
Protocol: (§1) Female New Zealand White rabbits (Hazelton, ~2.0-2.3 kg) were fed 0.5% cholesterol/10% corn oil enriched rabbit chow (Purina # 5322) with or without test compound. The experiment was conducted for 70 days. The test compounds were solubilized in 100% ethanol and sprayed on the chow; control chows were sprayed with ethanol. The chows were dried overnight in a chemical fume hood. Rabbits were fed 100 grams food per day; water was available ad libitum. On the last day of the study rabbits (fasted overnight) were bled (~2 mL) from a marginal ear vein periodically to monitor serum cholesterol levels. The rabbits were euthanized on day 70 by carbon dioxide overdose. The total body and liver weights were recorded in grams. Food consumption was recorded as grams.cndot.day^-1. Aliquots of fresh serum were used for clinical chemistries and copper induced thiobarbituric acid reactive substances (TBARS). Aliquots of serum and livers (~5 gram) were frozen at -20° C. for compound and metabolite concentration determination at a later time.
The aortas were dissected from rabbits immediately after they were killed. The aorta from the ascending arch to the iliac bifurcation was excised after debridement of extraneous adipose tissue. Aortas were stored overnight in phosphate buffered saline (PBS)/0.02% sodium azide, pH 7.4, at 4° C. until final debridement. Before staining, aortas were cut open longitudinally and stained with Sudan IV as follows. Sudan IV stain (5.0 g) was added to 500 mL of 70% ethanol, 500 mL of acetone were added, and the solution was stirred overnight at room temperature. The solution was filtered through Whatman #1 filter paper. Aortas were rinsed with 70% ethanol for 10 minutes. They were stained with Sudan IV for 60 min at room temperature, rinsed with 70% ethanol for 5-10 min, and stored in deionized water overnight at 4° C. They were stored in PBS/0.02% sodium azide at 4° C. until imaging could be completed.
The areas containing sudanophilic lesions were quantitated as follows. Aortas were pinned flat onto black plastic sheets, illuminated with several fiber optic light sources, and photographed with a KODAK DCS-420 digital camera mounted on a copy stand. Images were captured and converted to 24 bit color TIFFs with Image Pals image editor software. The resulting images were rescaled to 1024×683 pixels to permit input into the Simple image analysis system and transferred to optical disk storage media. The Simple software was programmed to allow a region of interest to be drawn around the section of the aorta (arch, thoracic, abdominal) which separated the image of the aorta from the pins and the background. the program determined the tissue area in pixels based on pre-selected thresholds of hue, saturation, and intensity. These thresholds were adjusted to recognize the lesion area, and the percent fraction (# lesion pixels/# tissue pixels) was determined. This process was repeated on each portion of the aorta for each rabbit.
(§2) % Control = (Mean, treated group / Mean, control group) × (100)
Total = % area of total surface area of aorta covered with lesions
Arch, Thoracic, Abdominal = % area of each segments of the aorta

[2] = Body weight and liver weight/body weight in cholesterol-fed rabbits; type: in vivo, rabbit (New Zealand White, female); conditions: II and III 0.40%; for body wt. as a percent of control: 70 days in 0.5% cholesterol/10% corn oil chow, diet I 0.15% (0.4% × 7 days, 0% × 7 days, then 0.15% × 56 days); for lw/bw (liver weight / body weight) as a percent of control: 70 days, diet I 0.15%*
Protocol: as §1, §2
Body wt. = weight in kilograms
liver wt. = weight in kilograms
LW/BW = (liver weight / body weight)

[3] = system: serum lipid oxidation (TBARS); experiment: TBARS assay: copper-induced oxidation of serum lipids from treated rabbits; type: in vivo, rabbit (New Zealand White, female); conditions: CuSO4 37° C. 5 hr, diet I 0.15%*, II and III 0.40%
Protocol: as §1
TBARS are a […] indication of the oxidation of lipids in a sample. Mao, S J T et al. Meth. of Enzymol. 234, 517-525 (1994). In this assay copper sulfate was used to initiate the oxidation serum lipids, resulting in the formation of aldehydes, such as malondialdehyde (MDA). Upon incubation with thiobarbituric acid, the absorbance of the aldehydes was detected at 530-540 nm. TBARS values which are lower than control serum values indicate the relative ability of a test compound to inhibit the oxidation. TBARS were measured as follows: 50 μL of serum were mixed with 50 μL of 0.9% saline and 400 μL of a 5 mmol CuSO4 solution and incubated at 37° C. for 5 hr. The reactions were stopped by addition of 1.0 mL of 20% trichloroacetic acid. […] Absorbances were measured at 540 nm using a Biotek model EL311 microplate reader. The nmoles of MDA produced were calculated from a standard curve of 0 to 10 nmoles of MDA prepared from malonaldehyde bis(dimethyacetal). […]
TBARS = thiobarbituric acid reactive substances, expressed as nmole MDA

[4] = system: serum cholesterol and triglycerides; experiment: Clinical chemistries: serum total cholesterol and triglycerides in cholesterol-fed rabbits; type: in vivo, rabbit (New Zealand White, female); conditions: for TRIG (triglycerides) as a percent of control / chol tot. (total cholesterol) as a percent of control: serum, 70 days, diet I 0.15%*, II and III 0.40%; for increase of triglycerides: vs control rabbits
Protocol: as §1
Blood was allowed to clot at room temperature for 30 minutes. Serum was obtained after centrifugation for 10 min at 5° C. at 3000 rpm in a Beckman GPKR centrifuge with a GH 3.7 rotor. Fresh serum was analyzed by a COBA MIRA S autoanalyzer (Roche Diagnostics) using Roche diagnostic reagents for total cholesterol (CHOL, kit # 44334) and triglyceride (TG, kit # 44120). Cholesterol and triglycerides were calculated as mg/dL.
as §2
CHOL = total cholesterol mg/dL
TRIG = triglycerides, mg/dL

[5] = HPLC quantitation of serum and liver compound and metabolite concentration; type: in vivo, rabbit (New Zealand White, female); conditions: for concentration at 1680 h: rabbit, po; for Serum Parent: parent compound concentration: 100800 min
Protocol: as §1
Serum and liver concentrations of parent compounds and the metabolites, bisphenol and diphenoquinone, were determined by reverse phase HPLC using a Waters 990 Powerline system. Mao, S. J. T. et al., Meth. of Enzymol. 234, 517-525 (1994); Satoni, D. K. and Coutant, J. E., J. Chrom. 380, 401-406 (1986). Livers (1 gram) were homogenized with 5.0 mL PBS, pH 7.4, using a Polytron tissue homogenizer at setting 5 for 20-30 seconds. Serum or liver homogenates were extracted as follows: 100 μL of serum or homogenate were added to 2.0 mL diethyl ether: ethanol (3:1) while vortexing the tube. The sample tubes were capped and centrifuged for 10 min at 5° C. at 3500 rpm in a Beckman GPKR centrifuge with a GH 3.7 rotor. The supernatants were transferred to clean tubes and dried under N2. Samples were reconstituted with 200 μL of acetonitrile:hexane:0.1 M ammonium acetate (90:6.5:3.5, by vol.). Then, 100 μL were injected onto a Waters Deltapak C18-300 Å column, and eluted with an 83% acetonitrile: 17% water mobile phase at a flow rate of 1.5 mL/min. Absorbances at the wavelengths of 240, 254, and 420 nm were recorded. Compound concentrations were calculated from known quantities of authentic parent compounds after correction for recovery; the range of recovery from spiked samples was 40 to 100%. The lowest detectable limit for this class of compounds was ~0.5 μg/mL. Concentrations were calculated as of μg/mL serum and of […].
Sample compound concentrations in serum and liver are presented as
μg/mL or μg/g, respectively.
Serum Parent = parent compound concentration as μg/mL of serum
Serum Bis = bisphenol concentration as μg/mL of serum
Serum Quin = diphenoquinone concentration as […]
Liver Parent = parent compound concentration as μg/g liver
Liver Bis = bisphenol concentration as μg/g liver
Liver Quin = diphenoquinone concentration as μg/g liver
0 = value less than detectable limit of HPLC system

[6] = liver, diet I 0.15%*, II and III 0.40%, read-out: Liver Parent: parent compound concentration
[7] = liver, read-out: concentration of parent compound in livers
[8] = serum, diet I 0.15% (0.4% × 7 days, 0% × 7 days, then 0.15% × 56 days), II and III 0.40%, read-out: Serum Parent: parent compound concentration
[9] = serum, diet I 0.15% (0.4% × 7 days, 0% × 7 days, then 0.15% × 56 days), II and III 0.40%

SMILES | Aortic Lesion % of Area, Abdom. (abdominal), as a percent of control [1] [%] | Aortic Lesion % of Area, Arch, as a percent of control [1] [%] | reduction of total aortic lesions [1] [%] | Aortic Lesion % of Area, Thor. (thoracic), as a percent of control [1] [%] | Aortic Lesion % of Area, Total, as a percent of control [1] [%] | body wt. as a percent of control [2] [%] | lw/bw (liver weight / body weight) as a percent of control [2] [%] | TBARS (nmole MDA) as a percent of control [3] [%] | TRIG (triglycerides) as a percent of control [4] [%] | chol tot. (total cholesterol) as a percent of control [4] [%] | increase of triglycerides [4] | concentration at 1680 h [5, 6] [ng/g] | concentration at 1680 h [5, 7] [µg/mL] | concentration at 1680 h [5, 8] [µg/mL] | bisphenol and diphenoquinone metabolites in serum and livers [5] | Serum Parent: parent compound concentration [5, 9] [µg/mL]
COc1ccc([Si](C)(C)COc2cc(C(C)(C)C)c(O)c(C(C)(C)C)c2)cc1 [Compound I, 2,6-Di-t-butyl-4-[(dimethyl-4-methoxyphenylsilyl)methyloxy]phenol] | 10 | 5 | 96 | 3 | 4 | 95 | 89 | 56 | 22 | 28 | did not show an undesirable increase of triglycerides | 44900 | 44.9 | 7.3 | none of the bisphenol and diphenoquinone metabolites of Compounds I or II were detected in either serum or livers | 7.3
COc1ccccc1[Si](C)(C)COc1cc(C(C)(C)C)c(O)c(C(C)(C)C)c1 [Compound II, 2,6-di-t-butyl-4-[(dimethyl-2-methoxyphenylsilyl)methyloxy]phenol] | 50 | 56 |  | 44 | 55 | 98 | 86 | 90 | 100 | 79 | did not show an undesirable increase of triglycerides | 80900 | 80.9 | 93.3 | none of the bisphenol and diphenoquinone metabolites of Compounds I or II were detected in either serum or livers | 93.3
CC(C)(C)c1cc(SC[Si](C)(C)c2ccccc2)cc(C(C)(C)C)c1O [Compound III, 2,6-di-t-butyl-4-[(dimethylphenylsilyl)methylthio]phenol, reference compound] | 30 | 50 | 57 | 30 | 43 | 89 | 98 | 18 | 783 | 64 |  | 323000 | 323 | 182 | undesirably high concentrations in both serum and livers | 182.4

From patent publication US6133467A, “2,6-di-t-butyl-4-[(dimethyl-4-methoxyphenylsilyl)-methyl-oxy]phenol and 2,6-di-t-butyl-4-[(dimethyl-2-methoxy-phenylsilyl)methyloxy]phenol” (Hoechst Marion Roussel, Inc., priority 1998, dated 2000)
